≈ marks a conversion by molar mass, not a printed value.
Experiments:
E. coli (ATCC 25922) [1] = assay: MIC (minimal inhibitory concentration) test, standard dilution method; format: cell-based; conditions: Escherichia coli, ATCC25922; E. coli ATCC 25922, standard dilution method
Source text: For the strain, E. coli (ATCC 25922) was used, and for the antibiotic, Ceftriaxone (CJ, Seoul, Korea), to which E. coli has not developed resistance, was used for the sensitivity test.
First, each strain activated by two subcultures was used to estimate the antibiotic sensitivity by MIC (minimal inhibitory concentration) test. For the MIC test, a standard dilution method (Performance Standards for Antimicrobial Susceptibility Testing; Fifteenth Informational Supplement, Clinical and Laboratory Standard Institute, M100-S15, Vol. 25, No. 1, 2005) was used according to CLIS (The Clinical and Laboratory Standards Institute) guidelines.

E. coli (ATCC 25922) [2] = assay: Plate count of E. coli in antibiotic-treated cultures; conditions: 1st-3rd experiment

MIC (E. coli (ATCC 25922) [1]): 0.12 µg/mL (≈ 0.216 µM)
SMILES: CO/N=C(\C(=O)N[C@@H]1C(=O)N2C(C(=O)O)=C(CSc3nc(=O)c(=O)[nH]n3C)CS[C@H]12)c1csc(N)n1 [Ceftriaxone]
CFU (number of bacteria, plate count) (E. coli (ATCC 25922) [2]; EC-1-04: 1 MIC antibiotic, 4 hr): 0 CFU | CFU (number of bacteria, plate count) (E. coli (ATCC 25922) [2]; EC-1-06: 1 MIC antibiotic, 6 hr): 0 CFU | CFU (number of bacteria, plate count) (E. coli (ATCC 25922) [2]; EC-1-12: 1 MIC antibiotic, 12 hr): 0 CFU | CFU (number of bacteria, plate count) (E. coli (ATCC 25922) [2]; EC-1-24: 1 MIC antibiotic, 24 hr): 0 CFU | CFU (number of bacteria, plate count) (E. coli (ATCC 25922) [2]; EC-2-02: 2 MIC antibiotic, 2 hr): 0 CFU | CFU (number of bacteria, plate count) (E. coli (ATCC 25922) [2]; EC-2-04: 2 MIC antibiotic, 4 hr): 0 CFU | CFU (number of bacteria, plate count) (E. coli (ATCC 25922) [2]; EC-2-06: 2 MIC antibiotic, 6 hr): 0 CFU | CFU (number of bacteria, plate count) (E. coli (ATCC 25922) [2]; EC-2-12: 2 MIC antibiotic, 12 hr): 0 CFU | CFU (number of bacteria, plate count) (E. coli (ATCC 25922) [2]; EC-2-24: 2 MIC antibiotic, 24 hr): 0 CFU

From patent publication US20100167956A1, “DNA CHIP FOR DETECTION OF ESCHERICHIA COLI” (MEDIGENES CO., LTD., priority 2007, published 2010)
